Reference: ChEMBL document CHEMBL5518227, “Discovery of JNJ-1802, a First-in-Class Pan-Serotype Dengue Virus NS4B Inhibitor” (J Med Chem, 2024)
pEC50: −log10 of the molar value. Values after ≈ are worked out from the molar mass of the structure shown. Values joined by “and” are separate entries in the source; they are usually repeats but may differ in a detail not shown here. Equal entries are not always repeated.

What was measured:
[1] = tested on: dengue virus type 1; assay: Antiviral activity against DENV-1 TC974#666 infected in african green monkey Vero cells incubated for 24 hrs measured after 3 days post infection by RT-PCR analysis; assay type: functional, organism-based; conditions: for pEC50: read-out: EC50
[2] = Metabolic stability in human liver microsomes assessed as intrinsic clearance preincubated for 5 mins followed by NADPH addition measured upto 60 mins by LC-MS/MS analysis; assay type: ADME, Microsome; conditions: time < 65 min, read-out: CLH
[3] = Metabolic stability in rat hepatocytes assessed as intrinsic clearance measured per million cells incubated upto 120 mins by LC-MS/MS analysis; assay type: ADME, cell-based, Hepatocyte; conditions: read-out: CLH
[4] = Clearance in Sprague-Dawley rat at 2.5 mg/kg, iv measured after 24 hrs by LC-MS/MS analysis; assay type: ADME, organism-based; conditions: in vivo
[5] = Clearance in Sprague-Dawley rat assessed as liver blood flow at 2.5 mg/kg, iv measured after 24 hrs by LC-MS/MS analysis; assay type: ADME, organism-based; conditions: in vivo
[6] = Volume of distribution at steady state in Sprague-Dawley rat at 2.5 mg/kg, iv measured after 24 hrs by LC-MS/MS analysis; assay type: ADME, organism-based; conditions: in vivo, read-out: Vdss
[7] = Elimination half life in Sprague-Dawley rat at 2.5 mg/kg, iv measured after 24 hrs by LC-MS/MS analysis; assay type: ADME, organism-based; conditions: in vivo, read-out: beta t1/2 (converted)
[8] = Cmax in Sprague-Dawley rat at 10 mg/kg, po measured after 24 to 48 hrs by LC-MS/MS analysis; assay type: ADME, organism-based; conditions: in vivo, time 24-48 hrs
[9] = AUC in Sprague-Dawley rat at 10 mg/kg, po measured after 24 to 48 hrs by LC-MS/MS analysis; assay type: ADME, organism-based; conditions: in vivo, time 24-48 hrs
[10] = Oral bioavailability in Sprague-Dawley rat at 10 mg/kg measured after 24 to 48 hrs by LC-MS/MS analysis; assay type: ADME, organism-based; conditions: in vivo, time 24-48 hrs
[11] = Thermodynamic solubility of the compound in aqueous buffer at pH 7.4 measured after 24 hrs by UPLC analysis; assay type: physicochemical; conditions: read-out: Therm_solubility
[12] = Thermodynamic solubility of the compound in PEG400 measured after 24 hrs by UPLC analysis; assay type: physicochemical
[13] = tested on: dengue virus type 2; assay: Antiviral activity against DENV-2 16681 expressing eGFP infected in african green monkey Vero cells incubated with cells for 24 hrs followed by viral infection measured after 3 days by laser microscopic analysis; assay type: functional, organism-based; conditions: Dengue virus, 16681, Vero
[14] = tested on: dengue virus type 3; assay: Antiviral activity against DENV-3 H87 infected in african green monkey Vero cells incubated for 24 hrs measured after 3 days post infection by RT-PCR analysis; assay type: functional, organism-based; conditions: for pEC50: Dengue virus, H87, Vero, read-out: EC50
[15] = tested on: dengue virus type 4; assay: Antiviral activity against DENV-4 H241 infected in african green monkey Vero cells incubated for 24 hrs measured after 3 days post infection by RT-PCR analysis; assay type: functional, organism-based
[16] = Metabolic stability in human hepatocytes assessed as intrinsic clearance measured per million cells incubated upto 120 mins by LC-MS/MS analysis; assay type: ADME, cell-based, Hepatocyte; conditions: read-out: CLH
[17] = Chromatographic hydrophobicity index, log D of the compound at pH 7.4 by LC/MS analysis; assay type: physicochemical; conditions: buffer
[18] = Metabolic stability in rat liver microsomes assessed as intrinsic clearance preincubated for 5 mins followed by NADPH addition measured upto 60 mins by LC-MS/MS analysis; assay type: ADME, Microsome; conditions: time < 65 min, read-out: CLH
[19] = Metabolic stability in mouse liver microsomes assessed as intrinsic clearance preincubated for 5 mins followed by NADPH addition measured upto 60 mins by LC-MS/MS analysis; assay type: ADME, Microsome; conditions: time < 65 min, read-out: CLH

Row | pEC50 ([1]; Dengue virus, TC974#666, Vero) | microsomal CLint [2] | pEC50 [13] | pEC50 [14] | pEC50 [15] | hepatocyte CLint [16] | Chromatographic log D at pH 7.4 [17] | SMILES | further results
1 | 9.01 | < 8 µL/min/mg |  |  |  |  |  | COc1cc(NC(C(=O)c2c[nH]c3cc(OC)c(C)cc23)c2ccc(Cl)cc2OC)cc(S(C)(=O)=O)c1 (configuration not stated) | pEC50 ([1]; vero): 9.05; hepatocyte CLint [3]: 7.2 µL/min/1e6 cells; clearance [4]: 23 mL/min/kg; LBF [5]: 33%; Vd [6]: 8.8 L/kg; half-life [7]: 4.4 h; Cmax [8]: 371 ng/mL; AUC [9]: 5140 ng·h/mL; bioavailability [10]: 74%; solubility thermodynamic at 24 h [11]: 1 µg/mL (≈ 1.84 µM); Therm_solubility [12]: > 169000 µg/mL
2 | 10.00 | < 8 µL/min/mg | 10.29 | 9.00 | 7.96 | < 1.2 µL/min/1e6 cells | 4.16 | COc1cc(NC(C(=O)c2c[nH]c3c(C)cc(OC(F)(F)F)cc23)c2ccc(Cl)cc2OC)cc(S(C)(=O)=O)c1 (configuration not stated) | 
3 |  | < 8 µL/min/mg |  |  |  |  | 3.46 | COc1cc(NC(C(=O)c2c[nH]c3cc(F)ccc23)c2ccc(Cl)cc2OC)cc(S(C)(=O)=O)c1 (single isomer, unassigned; (+)) | pEC50 ([1]; vero): 7.70 and 8.70
4 | 9.40 | < 8 µL/min/mg | 9.77 | 8.10 | 7.36 | 2.4 µL/min/1e6 cells | 3.68 | COc1cc(NC(C(=O)c2c[nH]c3cc(F)c(C)cc23)c2ccc(Cl)cc2OC)cc(S(C)(=O)=O)c1 (single isomer, unassigned; (+)) | 
5 | 7.40 |  | 9.21 | 7.26 | 6.96 | 7.6 µL/min/1e6 cells | 3.36 | COc1cc(NC(C(=O)c2c[nH]c3cc(OC)c(C)cc23)c2ccc(F)cc2OC)cc(S(C)(=O)=O)c1 (single isomer, unassigned; (+)) | hepatocyte CLint [3]: 17 µL/min/1e6 cells; clearance [4]: 14 mL/min/kg; LBF [5]: 20%; Vd [6]: 5.5 L/kg; half-life [7]: 5.1 h; Cmax [8]: 263 ng/mL; AUC [9]: 3700 ng·h/mL; bioavailability [10]: 31%; solubility thermodynamic at 24 h [11]: 1 µg/mL (≈ 1.9 µM); Therm_solubility [12]: 93000 µg/mL
6 | 9.40 | < 8 µL/min/mg | 9.51 | 8.22 | 7.82 | < 1.2 µL/min/1e6 cells | 3.87 | COc1cc(NC(C(=O)c2c[nH]c3ccc(C(F)(F)F)cc23)c2ccc(Cl)cc2OC)cc(S(C)(=O)=O)c1 (single isomer, unassigned; (+)) | 
7 | 8.70 |  | 9.43 | 7.77 | 7.28 | < 1.9 µL/min/1e6 cells | 3.24 | COc1cc(NC(C(=O)c2c[nH]c3cc(OC)c(C)cc23)c2ccc(Cl)cc2OCCO)cc(S(C)(=O)=O)c1 (single isomer, unassigned; (+)) | hepatocyte CLint [3]: 3.7 µL/min/1e6 cells; clearance [4]: 21 mL/min/kg; LBF [5]: 31%; Vd [6]: 7.1 L/kg; half-life [7]: 4.7 h; Cmax [8]: 103 ng/mL; AUC [9]: 1200 ng·h/mL; bioavailability [10]: 16%; solubility thermodynamic at 24 h [11]: < 1 µg/mL
8 | 8.40 | < 8 µL/min/mg | 9.47 | 7.28 | 7.00 | 10 µL/min/1e6 cells | 3.22 | COc1cc(NC(C(=O)c2c[nH]c3cc(OC)c(F)cc23)c2ccc(Cl)cc2OC)cc(S(C)(=O)=O)c1 (single isomer, unassigned; (+)) | 
9 | 9.52 | < 8 µL/min/mg | 10.24 | 8.40 | 7.96 | < 1.2 µL/min/1e6 cells | 3.82 | COc1cc(NC(C(=O)c2c[nH]c3cc(OC)c(OC(F)(F)F)cc23)c2ccc(Cl)cc2OC)cc(S(C)(=O)=O)c1 (single isomer, unassigned; (+)) | 
10 | 8.40 | < 8 µL/min/mg | 9.52 | 7.32 | 6.96 | 10 µL/min/1e6 cells | 3.23 | COc1cc(NC(C(=O)c2c[nH]c3cc(OC)ccc23)c2ccc(Cl)cc2OC)cc(S(C)(=O)=O)c1 (single isomer, unassigned; (+)) | 

Further lines, the molecule ahead of its results:

Row | SMILES | pEC50 ([1]; Dengue virus, TC974#666, Vero) | microsomal CLint [2] | pEC50 [13] | pEC50 [14] | pEC50 [15] | hepatocyte CLint [16] | Chromatographic log D at pH 7.4 [17] | further results
11 | COc1cc(NC(C(=O)c2c[nH]c3ccccc23)c2ccc(F)cc2)cc(OCCO)c1 (configuration not stated) | 7.07 | < 8 µL/min/mg | 7.85 | 6.02 | 5.59 |  |  | microsomal CLint [18]: 24 µL/min/mg; microsomal CLint [19]: 94 µL/min/mg
12 | COc1cc(NC(C(=O)c2c[nH]c3ccccc23)c2ccc(F)cc2)cc(S(=O)(=O)CCCO)c1 (configuration not stated) |  | 35 µL/min/mg | 6.64 |  | 4.85 |  |  | EC50 ([1]; vero): Not Active; EC50 ([14]; vero): Not Active; microsomal CLint [18]: 66 µL/min/mg
13 | COc1cc(NC(C(=O)c2c[nH]c3cc(F)ccc23)c2ccc(F)cc2OC)cc(S(C)(=O)=O)c1 (configuration not stated) | 8.10 |  |  | 7.30 | 6.77 | < 1.9 µL/min/1e6 cells | 3.23 | hepatocyte CLint [3]: 8.5 µL/min/1e6 cells; clearance [4]: 16 mL/min/kg; LBF [5]: 23%; Vd [6]: 7.2 L/kg; half-life [7]: 5.3 h; Cmax [8]: 418 ng/mL; AUC [9]: 5210 ng·h/mL; bioavailability [10]: 49%; solubility thermodynamic at 24 h [11]: 2 µg/mL (≈ 4 µM); Therm_solubility [12]: 41000 µg/mL
14 | COc1cc(NC(C(=O)c2c[nH]c3ccccc23)c2ccc(F)cc2)cc(S(C)(=O)=O)c1 (configuration not stated) | 7.06 | 12 µL/min/mg | 8.05 | 6.17 | 5.74 |  |  | microsomal CLint [18]: 16 µL/min/mg; microsomal CLint [19]: 48 µL/min/mg
15 | COc1cc(NC(C(=O)c2c[nH]c3c(C)c(F)ccc23)c2ccc(Cl)cc2OC)cc(S(C)(=O)=O)c1 (single isomer, unassigned; (+)) | 8.70 | < 8 µL/min/mg | 9.62 | 7.72 | 7.08 |  | 3.73 | 
16 | COc1cc(NC(C(=O)c2c[nH]c3cc(F)ccc23)c2ccc(F)cc2OCCO)cc(S(C)(=O)=O)c1 (single isomer, unassigned; (+)) | 8.10 |  | 9.00 | 7.17 | 6.54 | 27 µL/min/1e6 cells | Not Active | hepatocyte CLint [3]: 8.8 µL/min/1e6 cells; clearance [4]: 35 mL/min/kg; LBF [5]: 40%; Vd [6]: 10 L/kg; half-life [7]: 3.9 h; Cmax [8]: 104 ng/mL; AUC [9]: 1250 ng·h/mL; bioavailability [10]: 27%; solubility thermodynamic at 24 h [11]: 1 µg/mL (≈ 1.88 µM)
17 | COc1cc(NC(C(=O)c2c[nH]c3ccccc23)c2ccc(F)cc2OC)cc(S(C)(=O)=O)c1 (single isomer, unassigned; (+)) | 7.92 | 9 µL/min/mg | 8.70 | 6.92 | 6.64 | 7 µL/min/1e6 cells |  | microsomal CLint [18]: 15 µL/min/mg; microsomal CLint [19]: 27 µL/min/mg
18 | COc1cc(NC(C(=O)c2c[nH]c3cc(OC)c(C)cc23)c2ccc(F)cc2OCCO)cc(S(C)(=O)=O)c1 (single isomer, unassigned; (+)) | 8.52 |  | 9.08 | 7.37 | 6.96 | < 1.9 µL/min/1e6 cells | 2.98 | hepatocyte CLint [3]: 11 µL/min/1e6 cells; clearance [4]: 30 mL/min/kg; LBF [5]: 42%; Vd [6]: 9.6 L/kg; half-life [7]: 4.2 h; Cmax [8]: 94 ng/mL; AUC [9]: 1010 ng·h/mL; bioavailability [10]: 18%; solubility thermodynamic at 24 h [11]: < 1 µg/mL
19 | COc1cc(NC(C(=O)c2c[nH]c3c(C)c(OC)ccc23)c2ccc(Cl)cc2OC)cc(S(C)(=O)=O)c1 (single isomer, unassigned; (+)) | 8.70 | < 8 µL/min/mg | 9.96 | 7.72 | 7.02 | 14 µL/min/1e6 cells | 3.59 | 
20 | COc1cc(NC(C(=O)c2c[nH]c3ccccc23)c2ccc(F)cc2OC)cc(OCCO)c1 (single isomer, unassigned; (+)) | 7.40 | 8 µL/min/mg | 8.05 | 6.68 | 6.12 |  |  | microsomal CLint [18]: 24 µL/min/mg; microsomal CLint [19]: 190 µL/min/mg
21 | COc1cc(NC(C(=O)c2c[nH]c3cc(F)ccc23)c2ccc(Cl)cc2OCCO)cc(S(C)(=O)=O)c1 (single isomer, unassigned; (+)) | 9.00 |  | 9.34 | 8.05 | 7.15 | 29 µL/min/1e6 cells |  | 
